# Reference: ChEMBL document CHEMBL1152149 (Bioorg Med Chem Lett, 2008)
# pEC50: −log10 of the molar value. Where a name gives a salt, the structure may show the parent alone.
# System: Influenza A virus
# Experiment: microbe, parasite or virus in culture
# Conditions: MDCK
compound,measurement,value
CC1(N)C2CC3CC(C2)CC1C3 (stereo unspecified),pEC50,> 5.70
CCCC1(N)C2CC3CC(C2)CC1C3 (stereo unspecified),pEC50,> 5.77
C1CNC2(C1)C1CC3CC(C1)CC2C3 (stereo unspecified),pEC50,5.74
CC1(O)C2CC3CC(C2)CC1C3 (stereo unspecified),pEC50,4.97
CCC1(N)C2CC3CC(C2)CC1C3 (stereo unspecified),pEC50,> 5.72
NC12CC3CC(CC(C3)C1)C2 [AMANTADINE HYDROCHLORIDE],pEC50,> 6.05
